# Test results as given in ChEMBL document CHEMBL1154198, “Chemical genetics of Plasmodium falciparum” (Nature, 2010).
# Experiments:
# Plasmodium falciparum [1] = test: ST_JUDE: Plasmodium falciparum 3D7 EC50 (uM) as measured by SYBR green dye; assay type: functional, organism-based
# Plasmodium falciparum [2] = test: ST_JUDE: Plasmodium falciparum K1 EC50 (uM) as measured by SYBR green dye; assay type: functional, organism-based
Structure (SMILES),EC50 (Plasmodium falciparum [1]) [µM],EC50 (Plasmodium falciparum [2]) [µM]
CCN1CCN(c2cc(C)c3cc(NC(=O)/C=C/c4ccccc4OC(C)C)ccc3n2)CC1,1.06,2.98
O=C(O)c1ccc(CN2C(=O)c3ccccc3C2=O)cc1,> 15,> 15
CCCOc1cc(O)c(-c2[nH]nc(C)c2Oc2ccccc2)cc1CC,3.83,2.1
CCCC(=O)NC(c1ccc(C)cc1)c1ccc2cccnc2c1O (centres undefined),4.21,> 15
COc1ccc(OC)c(C2CC(=O)C3=C(C2)NC(=O)CC3c2ccc(OC)c(OC)c2)c1 (centres undefined),2.41,3.79
Cc1c(C=O)c2ccccc2n1CC(=O)Nc1cccc(I)c1,3,3.03
Oc1c(C(Nc2ccccn2)c2ccc(Br)cc2)ccc2cccnc12 (centres undefined),1.22,2.84
CCOc1ccc(-c2nonc2NC(=O)c2ccccc2Cl)cc1OCC,0.49,0.538
CCOc1ccc2nc(C)cc(Nc3cccc(OC)c3)c2c1,3.41,6.76
CCc1c(C)nc(-n2nc(C)cc2NC(=O)c2ccc(C(C)(C)C)cc2)nc1O,> 15,> 15
Cc1ccc(/C=C2\Oc3c(ccc(O)c3CN3CCCCC3)C2=O)cc1,2.89,0.28
CCc1ccc(C2c3c(-c4ccccc4O)n[nH]c3C(=O)N2CCCOC(C)C)cc1 (centres undefined),> 15,> 15
Cc1ccc2c(c1)c1c(n2CC(O)CNC2CCCC2)CCCC1 (centres undefined),2.9,1.72
CC(C)Nc1c2ccccc2nc2ccccc12,2.54,4.07
O=C(N1CCCN(C(=O)C(Cl)(Cl)Cl)CC1)C(Cl)(Cl)Cl,3.42,2.23
CN(C)CCNCCCOc1ccc(Cl)cc1Cc1ccccc1,5.82,> 15
CCCOc1ccc(CSC2=NCCN2)cc1[N+](=O)[O-],6.86,6.96
Cc1nnc(NCCN2CCOCC2)nc1O,> 15,> 15
CCc1cc(-c2[nH]ncc2-c2ccc(F)cc2)c(O)cc1OC,> 15,> 15
O=C1C(Nc2cccc(F)c2)=C(N2CCCCC2)C(=O)c2ccccc21,0.261,0.471
O=C(CCNc1ccc(Oc2ccccc2)cc1)c1ccco1,> 15,> 15
CCCCn1nnnc1NCc1cc(Cl)c(OC)c(OC)c1,5.86,> 15

Structure (SMILES),EC50 (Plasmodium falciparum [1]) [µM],EC50 (Plasmodium falciparum [2]) [µM]
CO/C(O)=C1\C(C)=NC2=C(C(=O)CC(c3ccccc3Cl)C2)C1c1ccc(OC)c(OC)c1 (centres undefined),> 15,9.39
CCC(=O)NC(c1ccc(Cl)cc1)c1ccc2cccnc2c1O (centres undefined),2.05,1.81
Cc1ccnc(NC(c2ccc([N+](=O)[O-])cc2)c2ccc3cccnc3c2O)c1 (centres undefined),1.81,3.7
COC(=O)C1=C(C(=O)OC)C2(OC1c1cccc(F)c1)C(=O)c1ccccc1C2=O (centres undefined),3.97,> 15
Cc1cc(Cl)c(S(=O)(=O)N(C)C)cc1OCC(=O)Nc1ccccc1,> 15,> 15
C=CCOC(=O)C1=C(C)N=C(C)/C(=C(\O)OCC=C)C1c1ccc(OC)c(OC)c1 (centres undefined),4.4,5.93
CC(C)CN1C(=O)c2ccccc2C(C(=O)Nc2ccc(Cl)cn2)C1c1cccs1 (centres undefined),3.44,4.78
COc1ccc(CCN2C(=O)c3[nH]nc(-c4ccccc4O)c3C2c2ccc(F)cc2)cc1 (centres undefined),> 15,> 15
CCOc1ccc(/C=c2\sc3n(c2=O)CN(c2cccc(F)c2)CN=3)cc1,> 15,> 15
CC(C)(C)CC(C)(C)NCC(O)COc1ccc2c(c1)CCC2 (centres undefined),4.42,1.22
CCCCn1c(=O)c2c(nc3n(-c4ccc(C)c(Cl)c4)c(C)cn23)n(C)c1=O,> 15,> 15
Cc1ccc(-n2cc(CN3CCCC(C(N)=O)C3)c(-c3cccc(C)c3)n2)cc1 (centres undefined),5.24,4.22
CCCC(=O)NC(c1ccccc1OC)c1ccc2cccnc2c1O (centres undefined),2.2,3.43
COc1nc(-c2ccncc2)nc2ccccc12,> 15,> 15
CCOc1ccc(C(=O)Nc2cc(C)nn2-c2nc(C)c(CC)c(O)n2)cc1OCC,> 15,> 15
O=C1CC(c2ccc(C(F)(F)F)cc2)C2=C(CC(c3ccccc3Cl)CC2=O)N1 (centres undefined),1.66,0.828
CN(C)c1ccc(/C=C/c2cc(/C=C/c3ccc(N(C)C)cc3)n3n[n+](C)nc3n2)cc1.[O-][Cl+3]([O-])([O-])[O-],0.641,0.514
CCOC(=O)C1=C(C)N=c2s/c(=C\c3cc(OC)ccc3O)c(=O)n2C1c1ccccc1 (centres undefined),> 15,> 15
CCC[N+]1(C)CCC2C(C1)c1ccccc1N2Cc1ccccc1 (centres undefined),4.25,> 15
CCc1cccc2c(C#N)cn(CCOc3ccccc3Cl)c12,0.516,0.577
O=[N+]([O-])c1ccc(S(=O)(=O)N2CCN(C3CCC(c4ccccc4)CC3)CC2)cc1 (centres undefined),> 15,> 15
CCCCC(O)(c1ccc(OC)cc1)C(CN1CCCCC1)c1ccccc1 (centres undefined),4.6,2.73

Structure (SMILES),EC50 (Plasmodium falciparum [1]) [µM],EC50 (Plasmodium falciparum [2]) [µM]
CCOCCCn1c(=N)c(C(=O)NCc2cccnc2)cc2c(=O)n3cccc(C)c3nc21,> 15,> 15
C=CCc1cccc(/C=N/NC(=O)c2cccs2)c1O,> 15,6.81
O=C(Cc1ccccc1)NC(c1ccc(Cl)cc1)c1c(O)ccc2ccccc12 (centres undefined),> 15,> 15
CCOC(=O)c1c(NC(=S)NCCc2ccccc2)sc2c1CC(C)(C)OC2,> 15,> 15
CC1CCN(Cc2c(O)ccc3ccccc23)CC1,0.368,0.492
CC(=O)NC(c1ccccc1Cl)c1ccc2cccnc2c1O (centres undefined),3.39,3.79
COc1cc(/C=C/c2ccc3cccc(OC(C)=O)c3n2)cc(Cl)c1OC,> 15,6.11
CCN1/C(=C/c2sc3ccc(C(=O)OC)cc3[n+]2CC)C=Cc2cc(OC)ccc21,0.0668,0.154
CC(C)c1ccc(NC(=O)CSc2n[nH]c(-c3ccccc3Cl)n2)cc1,4.78,4.96
O=C(Nc1ccc2oc(-c3ccc(F)cc3Cl)nc2c1)C(Cl)(Cl)Cl,> 15,> 15
CCCCCCCCc1c(C)c(C#N)c2nc3ccccc3n2c1-n1cnc2ccccc21,> 15,> 15
O=C(Nc1ccc(Cl)c(Cl)c1)c1ccc(-c2ccccc2)cc1,> 15,> 15
CN1/C(=C/c2cccc[n+]2CCO)Sc2ccccc21,1.79,1.2
Cc1ccc(NC2=NC(=O)CC(C(=O)Nc3ccc(C(C)C)cc3)S2)cc1C (centres undefined),> 15,> 15
CCOCc1cc(CN2CCN(c3cccc(C(F)(F)F)c3)CC2)c(O)c2ncccc12,1.41,1.49
N=C(N)N/N=C/c1ccncc1,3.49,> 15
CCCOc1cc(Br)c(C2NC(S)=NC(c3ccccc3)=C2C(C)=O)cc1OCC (centres undefined),> 15,4.24
CC(C)CN1CCN(Cc2cc(Cl)ccc2O)CC1CCO (centres undefined),> 15,4.82
C[n+]1ccc(C=Cc2ccc(O)cc2)cc1,3.97,4.01
CCc1nc2sc(C(c3cccc(F)c3)N3CCN(c4ccc(OC)cc4)CC3)c(O)n2n1 (centres undefined),> 15,> 15
COc1ccc2c(c1OC)C(=O)N1c3ccccc3N=C(c3ccc(C)cc3)CC21 (centres undefined),2.53,1.7
CC(=O)N(C1=C(N2CCOCC2)C(=O)c2ccccc2C1=O)c1ccc(F)cc1,0.51,0.548

Structure (SMILES),EC50 (Plasmodium falciparum [1]) [µM],EC50 (Plasmodium falciparum [2]) [µM]
CC(=O)N(C1=C(N2CCCC2)C(=O)c2ccccc2C1=O)C1CCCCC1,0.28,0.399
CCN(CC)CCOC(=O)c1ccc(NC(=O)c2cc3cc4cc(OC)ccc4nc3s2)cc1,1.7,3.31
CCN(CC)c1ccc(C2NC(=O)NC(O)(C(F)(F)F)C2C(=O)c2cccnc2)cc1 (centres undefined),9.06,8.42
CCOCCn1/c(=N/C(=O)COc2ccc(Cl)cc2)sc2cc(OCC)ccc21,> 15,> 15
CCOC(=O)C1=C(C)N=c2s/c(=C\c3ccc(O)cc3)c(=O)n2C1c1ccc(OC)c(OCC)c1 (centres undefined),0.77,> 15
COc1ccc(CNCCc2ccc(F)cc2)cc1C,> 15,> 15
CCCCCn1c(=N)n(CC(O)COc2cccc(C)c2)c2ccccc21 (centres undefined),2.65,1.36
Cc1c(C(=O)Nc2cc(Cl)ccc2Cl)cccc1[N+](=O)[O-],> 15,> 15
Cc1c(Cl)cccc1NC(=O)c1ccccc1[N+](=O)[O-],> 15,> 15
CC(C)(C)c1ccc(C(=O)Nc2c3c(nn2-c2ccc([N+](=O)[O-])cc2)CS(=O)(=O)C3)cc1,10.6,3.09
O=C(Nc1ccccc1-c1ccccc1)C(Cl)(Cl)Cl,1.56,1.15
COc1ccc(OC)c(NC(=O)C2c3ccccc3C(=O)N(C)C2c2cccs2)c1 (centres undefined),> 15,4.28
CCC(C)c1ccc(NC(=O)c2cc(Br)ccc2OC)c(O)c1 (centres undefined),6.05,2.11
CCC(=O)C1=C(c2ccc(F)cc2)N(C(=O)CC)n2cnnc2S1,> 15,> 15
O=C(CSc1nccn1Cc1ccccc1Cl)Nc1cc(C(F)(F)F)ccc1Cl,> 15,1.39
CCN(CC)c1ccc(/C=N/NC(=O)c2cccc(NC(=O)c3ccc(C)cc3)c2)c(O)c1,5.46,> 15
O=[N+]([O-])c1cc(C(F)(F)F)ccc1NCCCNS(=O)(=O)c1ccc(Cl)cc1,> 15,> 15
CCCCc1ccc(NC(=O)CSc2nc3c(c(=O)n2C)SC(C)C3)cc1 (centres undefined),2.93,2.05
CCN1C(=O)c2ccccc2Sc2ccc(NC(=O)NCc3ccccc3Cl)cc21,> 15,> 15
CCO/C(O)=C1\C(C)=NC2=C(C(=O)CC(c3ccc(Cl)cc3)C2)C1c1cc(F)ccc1F (centres undefined),> 15,> 15
CCCCN(C)Cc1c(O)ccc2c(=O)c(Oc3ccccc3OCC)c(C(F)(F)F)oc12,2,1.47
